The values that follow come from EP3344255B1 (priority 2016, dated 2017).

Read-outs that look alike come from different tables or passages of the source.

Common to all, as to type: cell-based, Acinetobacter baumannii
Test [1] relates to colistin-susceptible A.baumannii strains. In words: Colistin gradient test (E-test) on Mueller Hinton Agar with and without methylene blue. From the text: (§1) Firstly, colistin-susceptible A.baumannii strains obtained from the same passage were subcultured on media (Mueller Hinton Agar) containing 14 mcg/ml methylene blue and without methylene blue and colistin gradient test (E-test) strips were placed on them.

The subject of test [2] is A.baumannii bacteria with resistance to colistin. Here is the method: as §1
Later, the same tests were performed on A.baumannii bacteria with resistance to colistin. […] These bacterial varieties with resistance to colistin were tested based on species with different levels of MIC (minimum inhibitory concentrations) for colistin.

Test [3] has as its system colistin-susceptible A.baumannii strains. Briefly: Growth on Mueller Hinton Agar with and without methylene blue. The following applies: 14 mcg/ml methylene blue in Mueller Hinton Agar.
Excerpt: as §1

Test [4] concerns A.baumannii bacteria with resistance to colistin. In words: Colistin gradient test (E-test) on Mueller Hinton Agar with and without methylene blue. Here is the method:
as §1
Later, the same tests were performed on A.baumannii bacteria with resistance to colistin. While there was growth in the medium without methylene blue (Mueller Hinton Agar), there was no growth in the medium containing methylene blue. […] These bacterial varieties with resistance to colistin were tested based on species with different levels of MIC (minimum inhibitory concentrations) for colistin. […] In other words, it's understood these bacteria were inhibited. […] The probable cause of this reduction is that those with MIC values more than 0.5 mcg/ml in the bacterial population were selectively killed by methylene blue. […] However, the inhibition rate for strains with high MIC value (like 32 mcg/ml) was higher than the inhibition rate for strains with low MIC value (like 4-8 mcg/ml). In other words, the susceptiblity to methylene blue is proportional to the colistin resistance levels of colistin-resistant A.baumannii bacteria.
These effects of inhibition of colistin-resistant A.baumannii bacteria by methylene blue are clearly understood from the appearance on MHA (Mueller Hinton Agar) media. Image 1 and 2 provide the appearance of A.baumannii strains with homogeneous resistance to colistin on MHA (Mueller Hinton Agar) media. […] Images 3 and 4 provide images of heteroresistant A.baumannii strains with resistance to colistin on MHA.

For the compound `CN(C)c1ccc2nc3ccc(=[N+](C)C)cc-3sc2c1` [methylene blue], in test [1] (effect of methylene blue, strains with colistin MIC values of 0.5 mcg/ml or less), the “increase of susceptibility to colistin” value is on record as “no increased susceptibility”. Further, the “susceptibility of A.baumannii strain to colistin” value in test [1] (medium containing 14 mcg/ml methylene blue, colistin susceptible strains) is given as “slightly increased”. Besides, the growth inhibition entry in test [2] (14 mcg/ml methylene blue on MHA, heteroresistant strain, internal zone with colistin MIC 32 mcg/ml) is on record as “totally inhibited”; in test [2] (14 mcg/ml methylene blue on MHA, homogeneously resistant strain with colistin MIC 32 mcg/ml (Image 2)) it was “completely inhibited”; in test [2] (methylene blue medium, bacteria with high levels of colistin resistance (MIC value 32 mcg/ml)) it was “completely stopped growth”; in test [2] (methylene blue medium, bacteria with low levels of colistin resistance (MIC value 1 or 3 mcg/ml)), “did not completely stop growing”; in test [3] it was “did not inhibit growth”. For the same compound, the growth result in test [2] (medium containing methylene blue (14 mcg/ml), colistin resistant bacteria, growth in medium without methylene blue) is “no growth”. In test [2] (methylene blue solution, all subpopulations with colistin MIC value above 0.5 mcg/ml), the “inhibitory effect on bacterial subpopulations” value is given as “inhibitory effects”.

Consider Colistin (polymyxin E), for which the “regression of colistin MIC” value in test [1] (medium containing methylene blue vs without, colistin susceptible strains) is approximately 0.5 µg/mL. In addition, the MIC came to 0.5 µg/mL in test [4] (14 mcg/ml methylene blue on MHA, heteroresistant strain, outer zone (MIC 2 mcg/ml before)); 32 µg/mL in test [4] (MHA without methylene blue, heteroresistant strain, internal zone (Image 3)); 2 µg/mL in test [4] (MHA without methylene blue, heteroresistant strain, outer zone (Image 3)); 32 µg/mL in test [4] (MHA without methylene blue, strain with homogeneous resistance to colistin (Image 1)). The “MIC (minimum inhibitory concentration)” value was 0.5 µg/mL in test [4] (with methylene blue, bacteria with low levels of colistin resistance (MIC 1 or 3 mcg/ml before)) and 32 µg/mL in test [4] (without methylene blue, bacteria with high levels of colistin resistance).

The term MIC denotes the lowest concentration found to suppress growth. Lower therefore signals greater potency.
